Test results: US20080176810A1, “Use of 3, 4', 5-Trihydroxy-Stilbene-3-Beta-D-glucoside in Prepartion of Medicines For Treating and/or Preventing Ischemic Heart Disease” (SHENZHEN NEPTUNUS PHARMACEUTICAL CO., LTD., priority 2004, published 2008)

Test system: acute myocardial infarction
Assay: Acute myocardial infarction in anesthetized dogs, oral (intragastric) administration
Format: in vivo
Conditions: for weight of infarct myocardium: N-BT staining; for Weight of IM/Weight of LH: in % (unit assumed); for LDH: serum, 180 min; for ΔST: surface ECG, by row: r6 before, r7-r12 5,15,30,60,90,120 min after administration
Experimental: Drugs were administered intragastrically in equal volume at unequal concentration. […] After weighing, animals were anesthetized with 3% pentobarbital sodium iv at the dose of 30 mg/kg. Tracheal intubation was performed and anesthesia respirator (SC-M5, manufactured by Shanghai Medical Instrument Factory) was connected for mechanical ventilation (18 20 per min with tidal volume of 350 550 ml) after thoracotomy. Needle electrodes were punctured into four limbs and under chest skin for monitoring standard limb lead and V3 and ECG. Thoracotomy was performed at the third intercostal space of left sternal border and the fourth rib was removed for full exposure of heart. The pericardium was cut open to make a pericardium hammock. The coronary artery was dissociated from between the second and third branches of left anterior descending coronary artery, underneath which pass through silk threads for two-step ligation. On surface of heart were placed 30-point epicardial leads, to which four limbs were connected through needle-electrodes, which were in turn connected to Powerlab/8s (AD Instruments) with a multichannel switcher to record epicardial electrogram. Animal models of acute myocardial ischemia were prepared with the method of two-step ligation. […] NBT). While other part of myocardium was dyed to blue-black, the Infarct myocardium would not be colorated, which was then cut off and weighted. The results of experiment were shown in x±s and statistics were checked with t-test of non-matched pair. When p<0.05, it was judged that the differences were statistically significant.

With “3,4′,5-trihydroxy-stilbene-3-β-D-glucoside [TSG]” the “weight of infarct myocardium” value (TSG 5 mg/kg oral) was 5.98 ± 1.71 g, the “Weight of IM/Weight of LH” value (TSG 5 mg/kg oral) was 10.8 ± 2.81 and the LDH (TSG 5 mg/kg oral) was 159 ± 80.4 IU/L. The ΔST (TSG 5 mg/kg oral, 5 min after administration) was 0.70 ± 0.50 mV, the ΔST (TSG 5 mg/kg oral, 15 min after administration) was 0.71 ± 0.48 mV and the ΔST (TSG 5 mg/kg oral, 30 min after administration) was 0.73 ± 0.51 mV. It also gave a ΔST (TSG 5 mg/kg oral, 60 min) of 0.88 ± 0.54 mV, a ΔST (TSG 5 mg/kg oral, 90 min after administration) of 0.82 ± 0.49 mV and a ΔST (TSG 5 mg/kg oral, 120 min after administration) of 0.86 ± 0.52 mV. The ΔST (TSG 5 mg/kg oral, Before administration) was 0.66 ± 0.45 mV, the “weight of infarct myocardium” value (TSG 10 mg/kg oral) was 3.17 ± 0.66 g and the “Weight of IM/Weight of LH” value (TSG 10 mg/kg oral) was 6.61 ± 1.31. The LDH (TSG 10 mg/kg oral) was 140 IU/L, the ΔST (TSG 10 mg/kg oral, 5 min after administration) was 0.68 ± 0.51 mV and the ΔST (TSG 10 mg/kg oral, 15 min after administration) was 0.69 ± 0.52 mV. The ΔST (TSG 10 mg/kg oral, 30 min after administration) was 0.69 ± 0.45 mV, the ΔST (TSG 10 mg/kg oral, 60 min) was 0.70 ± 0.44 mV and the ΔST (TSG 10 mg/kg oral, 90 min after administration) was 0.75 ± 0.46 mV. The ΔST (TSG 10 mg/kg oral, 120 min after administration) was 0.81 ± 0.52 mV, the ΔST (TSG 10 mg/kg oral, Before administration) was 0.55 ± 0.40 mV and the “weight of infarct myocardium” value (TSG 20 mg/kg oral) was 2.31 ± 0.70 g. The “Weight of IM/Weight of LH” value (TSG 20 mg/kg oral) was 4.03 ± 0.61 and the LDH (TSG 20 mg/kg oral) was 120 IU/L.
